Values after ≈ are worked out from the molar mass of the structure shown.
How the values were obtained:
[1] = Inhibition of Staphylococcus aureus SrtA
[2] = Inhibition of Bacillus anthracis SrtA
[3] = Inhibition of Staphylococcus aureus SrtA after 2 hrs
[4] = Inhibition of Staphylococcus aureus SrtA by FRET assay
[5] = Inhibition of Staphylococcus aureus ATCC 6538p recombinant SrtA after 1 hr by spectrometery using Dabcyl-QALPETGEE-Edans as substrate
[6] = Competitive inhibition of Staphylococcus aureus ATCC 6538p recombinant SrtA by spectrometery using Dabcyl-QALPETGEE-Edans as substrate
[7] = Inhibition of Staphylococcus aureus ATCC 6538p SrtA by spectrometery

## Clc1ccccc1-c1nn2c(-c3ccncc3)nnc2s1
[1]
  IC50: 11.78 µg/mL (≈ 37.5 µM)

## CN(C)CCC(=O)c1ccc(Cl)c(Cl)c1
[2]
  IC50: 5.6 µM
[3]
  IC50: 15 µM

## O=C(O)COc1ccccc1C1Nc2cccc3cccc(c23)N1
[4]
  IC50: 15.12 µg/mL (≈ 47.2 µM)

## CC[C@H](CC[C@@H](C)[C@H]1CC[C@H]2[C@@H]3CC[C@@H]4C[C@@H](O[C@@H]5O[C@H](CO)[C@@H](O)[C@H](O)[C@H]5O)CC[C@]4(C)[C@H]3CC[C@]12C)C(C)C
[5]
  IC50: 18.3 µg/mL

## CN(C)CCC(=O)c1cccs1
[2]
  IC50: 4.8 µM
[3]
  IC50: 47 µM

## COC(=O)/C(=C/c1ccc(OC)cc1)c1ccc(OC)cc1
[5]; read-out: IC50
  IC50: 231 µM

## COc1ccc(/C(C#N)=C/c2cc(OC)ccc2OC)cc1
[6]
  Ki: 6.81 µM
[5]; read-out: IC50
  IC50: 9.2 µM

## COc1ccc(/C=C(\C#N)c2ccc(OC)cc2)cc1
[5]; read-out: IC50
  IC50: 28 µM

## COc1ccc2cc3[n+](cc2c1OC)CCc1cc2c(cc1-3)OCO2.[Cl-] [BERBERINE CHLORIDE]
[5]
  IC50: 8.7 µg/mL

## COc1cc(/C=C/C(=O)CC(=O)/C=C/c2ccc(O)c(OC)c2)ccc1O [CURCUMIN]
[7]
  IC50: 13.8 µg/mL (≈ 37.5 µM)

## C=C(C)[C@H](CCC(C)(C)O)Cc1c(O)cc(OC)c2c1O[C@H](c1ccc(O)cc1O)CC2=O [KURARINOL]
[1]
  IC50: 48.8 µg/mL (≈ 107 µM)
